How the values were obtained:
Lipolase = molecular target: T1, Lipolase (Thermomyces lanuginosus, UniProt O59952); experiment: storage stability of lipase (Lipolase activity, pNitrophenol-valerate substrate) in liquid formulations at 37° C.; type: biochemical, Thermomyces lanuginosa; details: Lipolase 0.4 wt %, storage at 37° C.
T1 construct: purchased Sigma-Aldrich
T1 sequence (O59952 23-291): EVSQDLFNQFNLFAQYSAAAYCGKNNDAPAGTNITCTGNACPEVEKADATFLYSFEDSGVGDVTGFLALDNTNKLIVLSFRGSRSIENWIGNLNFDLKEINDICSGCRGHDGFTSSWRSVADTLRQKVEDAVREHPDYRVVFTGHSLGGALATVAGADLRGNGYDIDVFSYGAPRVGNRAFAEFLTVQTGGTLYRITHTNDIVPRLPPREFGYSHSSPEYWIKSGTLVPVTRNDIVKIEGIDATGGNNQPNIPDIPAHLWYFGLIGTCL
Protocol: (§1) The storage stability of Lipase and Protease in water was assessed at 37° C.
(§2) Base test formulations were manufactured by making base formulations I to VI by mixing the components according to Table 1.
(§3) The respective salt (component (a)) or comparative compound was added, if applicable, to the respective base formulation in amounts as indicated in Table 1.
(§4) The amount of enzyme as provided in Table 1 refers to active protein. Either lipase or protease was added, depending on which enzyme activity was measured.
(§5) Lipolase® 100 L (CAS-No. 9001-62-1, EC-No. 232-619-9) was purchased from Sigma-Aldrich. Savinase® 16.0 L (CAS-No. 9014-01-1, EC-No. 232-752-2) was purchased from Sigma-Aldrich.
Lipolase activity at certain points in time as indicated in Table 2 was be determined by employing pNitrophenol-valerate (2.4 mM pNP-C5 in 100 mM Tris pH 8.0, 0.01% Triton X100) as a substrate. The absorption was measured at 20° C. every 30 seconds over 5 minutes at 405 nm. The slope (absorbance increase at 405 nm per minute) of the time dependent absorption-curve is directly proportional to the activity of the lipase.
The lipolytic activity values provided in Table 2 were calculated referring to the 100% value determined in the reference formulation at the time 0.
(§6) The nomenclature of formulations is as follows: the Roman number before the full stop characterizes the base formulation, the Arabian number the type of salt (A.# inventive salt (component (a)); C-(A.#) comparative compound). Zero (“0”): no salt, but diethylene glycol.

Savinase = molecular target: T2, Savinase (Lederbergia lenta, UniProt P29600); experiment: storage stability of protease (Savinase activity, Suc-AAPF-pNA substrate) in liquid formulations at 37° C.; type: biochemical; details: Savinase 16.0 L 0.5 wt %, storage at 37° C.
T2 construct: purchased Sigma-Aldrich
T2 sequence (P29600 1-269): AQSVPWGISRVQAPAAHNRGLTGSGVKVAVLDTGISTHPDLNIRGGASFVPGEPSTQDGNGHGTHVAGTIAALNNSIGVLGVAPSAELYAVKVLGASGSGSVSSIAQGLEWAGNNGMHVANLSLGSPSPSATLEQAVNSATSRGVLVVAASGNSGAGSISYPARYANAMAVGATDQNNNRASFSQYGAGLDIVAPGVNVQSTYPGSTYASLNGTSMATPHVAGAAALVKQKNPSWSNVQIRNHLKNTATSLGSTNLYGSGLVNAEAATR
Protocol: as §1, §2, §3, §4, §5
Savinase activity at certain points in time as indicated in Table 3 was be determined by employing Succinyl-Ala-Ala-Pro-Phe-p-nitroanilide (Suc-AAPF-pNA, short AAPF) as substrate. pNA is cleaved from the substrate molecule by proteolytic cleavage, resulting in release of yellow color of free pNA which was determined by measuring OD405. Measurement were done at 20° C.
The proteolytic activity values provided in Table 3 were calculated referring to the 100% value determined in the reference formulation at the time 0.
as §6

[1] = base formulation I., component (a) 2.5 wt %, 1 d
[2] = base formulation I., component (a) 2.5 wt %, 3 d
[3] = base formulation I., component (a) 2.5 wt %, 6 d
[4] = base formulation I., component (a) 2.5 wt %, 10 d
[5] = base formulation I., component (a) 2.5 wt %, 15 d
[6] = base formulation I., component (a) 2.5 wt %, 20 d
[7] = base formulation I., component (a) 2.5 wt %, 25 d
[8] = base formulation I., component (a) 2.5 wt %, 30 d
[9] = base formulation IV., component (a) 4.0 wt %, 1 d
[10] = base formulation IV., component (a) 4.0 wt %, 3 d
[11] = base formulation IV., component (a) 4.0 wt %, 6 d
[12] = base formulation IV., component (a) 4.0 wt %, 10 d
[13] = base formulation IV., component (a) 4.0 wt %, 15 d
[14] = base formulation IV., component (a) 4.0 wt %, 20 d
[15] = base formulation IV., component (a) 4.0 wt %, 25 d
[16] = base formulation IV., component (a) 4.0 wt %, 30 d
[17] = base formulation V., component (a) 4.0 wt %, 1 d
[18] = base formulation V., component (a) 4.0 wt %, 3 d
[19] = base formulation V., component (a) 4.0 wt %, 6 d
[20] = base formulation V., component (a) 4.0 wt %, 10 d
[21] = base formulation V., component (a) 4.0 wt %, 15 d
[22] = base formulation V., component (a) 4.0 wt %, 20 d
[23] = base formulation V., component (a) 4.0 wt %, 25 d
[24] = base formulation V., component (a) 4.0 wt %, 30 d
[25] = base formulation I., component (a) 2.5 wt %, T0

Q: Which results are given for `C[N+](C)(C)CCO.[Cl-]` [C-(A.15), Choline chloride]?
A: lipase activity (Lipolase; [1]): 95%; lipase activity (Lipolase; [2]): 80%; lipase activity (Lipolase; [3]): 67%; lipase activity (Lipolase; [4]): 55%; lipase activity (Lipolase; [5]): 41%; lipase activity (Lipolase; [6]): 32%; lipase activity (Lipolase; [7]): 22%; lipase activity (Lipolase; [8]): 20%; lipase activity (Lipolase; base formulation II., component (a) 2.5 wt %, 1 d): 95%; lipase activity (Lipolase; base formulation II., component (a) 2.5 wt %, 3 d): 82%; lipase activity (Lipolase; base formulation II., component (a) 2.5 wt %, 6 d): 65%; lipase activity (Lipolase; base formulation II., component (a) 2.5 wt %, 10 d): 56%; lipase activity (Lipolase; base formulation II., component (a) 2.5 wt %, 15 d): 40%; lipase activity (Lipolase; base formulation II., component (a) 2.5 wt %, 20 d): 33%; lipase activity (Lipolase; base formulation II., component (a) 2.5 wt %, 25 d): 26%; lipase activity (Lipolase; base formulation II., component (a) 2.5 wt %, 30 d): 22%; lipase activity (Lipolase; [9]): 95%; lipase activity (Lipolase; [10]): 82%; lipase activity (Lipolase; [11]): 72%; lipase activity (Lipolase; [12]): 59%; lipase activity (Lipolase; [13]): 44%; lipase activity (Lipolase; [14]): 36%; lipase activity (Lipolase; [15]): 30%; lipase activity (Lipolase; [16]): 23%; lipase activity (Lipolase; [17]): 95%; lipase activity (Lipolase; [18]): 86%; lipase activity (Lipolase; [19]): 74%; lipase activity (Lipolase; [20]): 63%; lipase activity (Lipolase; [21]): 54%; lipase activity (Lipolase; [22]): 41%; lipase activity (Lipolase; [23]): 39%; lipase activity (Lipolase; [24]): 30%; protease activity (Savinase; [1]): 92%; protease activity (Savinase; [2]): 85%; protease activity (Savinase; [3]): 64%; protease activity (Savinase; [4]): 47%; protease activity (Savinase; [5]): 39%; protease activity (Savinase; [6]): 31%; protease activity (Savinase; [7]): 22%; protease activity (Savinase; [8]): 8%; protease activity (Savinase; [25]): 98%; protease activity (Savinase; base formulation VI., component (a) 4.0 wt %, 1 d): 90%; protease activity (Savinase; base formulation VI., component (a) 4.0 wt %, 3 d): 84%; protease activity (Savinase; base formulation VI., component (a) 4.0 wt %, 6 d): 66%; protease activity (Savinase; base formulation VI., component (a) 4.0 wt %, 10 d): 47%; protease activity (Savinase; base formulation VI., component (a) 4.0 wt %, 15 d): 36%; protease activity (Savinase; base formulation VI., component (a) 4.0 wt %, 20 d): 29%; protease activity (Savinase; base formulation VI., component (a) 4.0 wt %, 25 d): 20%; protease activity (Savinase; base formulation VI., component (a) 4.0 wt %, 30 d): 10%; protease activity (Savinase; base formulation VI., component (a) 4.0 wt %, T0): 85%

Q: For `C[N+](C)(C)CCO.C[N+](C)(C)CCO.O=C([O-])C(O)C(O)C(=O)[O-]` (centres unmarked) [C-(A.16)], which lipase activity (Lipolase; [1]) is on record?
A: The lipase activity was 90%.

Q: What about the lipase activity (Lipolase; [2]) of the same compound?
A: The lipase activity was 81%.

Q: What about the lipase activity (Lipolase; [3]) of the same compound?
A: The lipase activity was 68%.

Q: What about the lipase activity (Lipolase; [4]) of the same compound?
A: Its lipase activity is 51%.

Q: What about the lipase activity (Lipolase; [5]) of the same compound?
A: Its lipase activity is 40%.

Q: What about the lipase activity (Lipolase; [6]) of the same compound?
A: The lipase activity was 34%.

Q: What about the lipase activity (Lipolase; [7]) of the same compound?
A: Its lipase activity is 25%.

Q: And the lipase activity (Lipolase; [8])?
A: Its lipase activity is 24%.

Q: What about the lipase activity (Lipolase; [25]) of the same compound?
A: The lipase activity was 95%.

Q: What about the lipase activity (Lipolase; [9]) of the same compound?
A: Its lipase activity is 90%.

Q: And the lipase activity (Lipolase; [10])?
A: The lipase activity was 81%.

Q: And the lipase activity (Lipolase; [11])?
A: The lipase activity was 67%.

Q: And the lipase activity (Lipolase; [12])?
A: The lipase activity was 55%.

Q: What about the lipase activity (Lipolase; [13]) of the same compound?
A: The lipase activity was 41%.

Q: And the lipase activity (Lipolase; [14])?
A: The lipase activity was 34%.

Q: What about the lipase activity (Lipolase; [15]) of the same compound?
A: Its lipase activity is 28%.

Q: And the lipase activity (Lipolase; [16])?
A: Its lipase activity is 25%.

Q: What about the lipase activity (Lipolase; base formulation IV., component (a) 4.0 wt %, T0) of the same compound?
A: The lipase activity was 95%.

Q: And the lipase activity (Lipolase; [17])?
A: The lipase activity was 92%.

Q: And the lipase activity (Lipolase; [18])?
A: The lipase activity was 85%.

Q: What about the lipase activity (Lipolase; [19]) of the same compound?
A: Its lipase activity is 70%.

Q: And the lipase activity (Lipolase; [20])?
A: Its lipase activity is 65%.

Q: What about the lipase activity (Lipolase; [21]) of the same compound?
A: The lipase activity was 58%.

Q: What about the lipase activity (Lipolase; [22]) of the same compound?
A: The lipase activity was 49%.

Q: And the lipase activity (Lipolase; [23])?
A: The lipase activity was 37%.

Q: And the lipase activity (Lipolase; [24])?
A: Its lipase activity is 28%.

Q: And the lipase activity (Lipolase; base formulation V., component (a) 4.0 wt %, T0)?
A: Its lipase activity is 96%.

Q: What about the protease activity (Savinase; [1]) of the same compound?
A: The protease activity was 91%.

Q: And the protease activity (Savinase; [2])?
A: The protease activity was 84%.

Q: What about the protease activity (Savinase; [3]) of the same compound?
A: The protease activity was 66%.

Q: And the protease activity (Savinase; [4])?
A: The protease activity was 49%.

Q: And the protease activity (Savinase; [5])?
A: The protease activity was 38%.

Q: And the protease activity (Savinase; [6])?
A: Its protease activity is 30%.

Q: What about the protease activity (Savinase; [7]) of the same compound?
A: Its protease activity is 23%.

Q: What about the protease activity (Savinase; [8]) of the same compound?
A: Its protease activity is 10%.

Q: And the protease activity (Savinase; [25])?
A: Its protease activity is 98%.
